# In article PMC7405012, “Detection of Chaetomium globosum, Ch. cochliodes and Ch. rectangulare during the Diversity Tracking of Mycotoxin-Producing Chaetomium-like Isolates Obtained in Buildings in Finland” (Toxins, 2020):
# Like-named read-outs stand apart in the source and are kept apart here.
# Key:
# [1] = test system: porcine kidney cells (PK-15); test: cells; type: cell-based; conditions: for EC50: Sus scrofa, 48 h, read-out: EC50 ICP PK-15 2 days
# boar spermatozoa [2] = test: cells; type: cell-based; conditions: for EC50: Spermatozoa, read-out: EC50 BSMIM Boar Sperm 20 min
# [3] = test system: murine neuroblastoma cells (MNA); test: Inhibition of cell proliferation (ICP) assay, MNA; type: cell-based; conditions: MNA, 2 days, 37 °C
# Protocol: The plate-grown biomass of the fungal pure cultures (100–300 mg) was extracted with ethanol as described earlier. The toxicity assays, namely BSMI assay after exposure for 30 min (rapid inhibition) and for one day (slow inhibition), SMID assay and ICP assay, were all described previously. The toxicity assays involving the ethanol extracts obtained from pure fungal cultures were performed using porcine cells (sperms and somatic cell lines) as indicators according to methods described before. The calculation of EC50—the half maximal effective concentration for the ethanol-dry substances and pure mycotoxins in the BSMI, SMID and ICP assays—were described previously.
# The continuous cell line PK-15 (porcine kidney cells) and a malignant cell line (MNA cell line) provided by EVIRA (Helsinki, Finland) were used in the ICP assay. 5,5′,6,6′-tetrachloro-1,1′,3,3′-tetraethyl-benzimidazolylcarbocyanine iodide (JC-1, 3520-43-2), PI (25535-16-4) and calcein-AM (148504-34-1) were obtained from Invitrogen (Carlsbad, CA, USA). Alamethicin A4665 (T. arundinaceum) (CAS 27061-78-5), a mixture of alamethicin F50 peptaibols (MW 1962, 1976, 1976 and 1990), chaetoglobosin A (CAS 50335-03-0), sterigmatocystin (CAS 10048-13-5) and ochratoxin A (CAS 303-47-9) were obtained from Sigma-Aldrich (St. Louis, MO, USA). Malt extract and tryptic soy agar were obtained from Scharlab (Barcelona, Spain). The other chemicals were of analytical grade and were purchased from local suppliers. The biocides and the wetting agent Genapol-080 were purchased from Sigma-Aldrich Finland. The fungicide Boracol 10Rh was obtained from a local supplier. The selected biocides were Borax (600 µg mL^−1; sodium tetraborate, CAS: 1330-43-4), Boracol 10Rh containing disodium octaborate tetrahydrate (CAS: 12280-03-04) and didecyldimethylammonium chloride [CAS: 7173-51-5]), PHMB (CAS: 27083-27-8), phenoxyethanol (CAS: 122-99-6), chloramine, triclosan (5-Chloro-2-(2,4-dichlorophenoxy)phenol, CAS: 3380-34-5) and the wetting agent Genapol X-080 (CAS: 9043-30-5). Genapol X-080 and the biocides were purchased from Sigma-Aldrich, except for Boracol 10Rh, which was purchased from a local supplier.
# boar spermatozoa [4] = test: cells; type: cell-based; conditions: for EC50: Spermatozoa, read-out: EC50 SMIDM Boar Sperm 2 h
# resting PK-15 cells = test: Mitochondrial damage test: accelerated glucose consumption and extracellular acidosis; type: cell-based, porcine; conditions: for EC50: Sus scrofa; for sublethal concentration that promoted the acceleration of glycolysis: PK-15 cells, positive controls for mitochondrial toxicity
# Protocol: The mitochondria were depolarized in sperm cells exposed to sublethal concentrations of chaetoglobosin A (Figure 5) and to the chaetoglobosin-containing extracts (Table 3). This observation aroused the suspicion regarding mitochondrial toxicity. The mitochondrial toxicity of the extracts containing chaetoglobosin was assessed by measuring the accelerated glucose consumption in resting PK-15 cells. […] By contrast, the positive controls for mitochondrial toxicity—enniatin B, moniliformin and valinomycin at sublethal concentrations of 1.5, 4 and 5 ng mL^−1, respectively—promoted the acceleration of glycolysis.
# The test for mitochondrial damage as indicated by accelerated glucose consumption and extracellular acidosis was described earlier. The PK-15 cells were grown in 8-well flat-bottom chamber glass slides, seeded to a density of 4 × 10^4 cells mL^−1, in the respective medium for 48 h. The twofold serially diluted test substances or the vehicle only was dispensed into the wells. The glucose content of the wells was measured by using a glucose meter (Precision Xceed; Abbott Diabetes Care Ltd., Berkshire, United Kingdom). In wells that received nothing or the vehicle only, the glucose concentration decreased from an initial concentration (0 h) of 12 to 6 mM (24 h), but the pH remained as pH of 7.2. A glucose concentration after 24 h of ≤3 mM indicated excessive glucose consumption. Prior to the measurement of the pH, the chamber slides were transferred into ambient air for 1 h to allow CO2 to evaporate. A pH drop of 0.5 units in the toxin-exposed well compared to the vehicle only was considered proof of acidosis. Mitochondrial depolarization (ΔΨm assay) was read by a fluorescence microscope after 26 h of exposure to the toxicants from the monolayers double stained with the membrane potential-responsive fluorogenic dye JC-1 and with propidium iodide to assess the relaxing of the plasma membrane permeability barrier, similar to what was reported previously for sperm cells (27).
# resting boar spermatozoa [5] = test: Plasma membrane integrity of resting spermatozoa (SMIDR), calcein-AM + PI; type: cell-based; conditions: resting boar sperm, 24 °C; for CC50: Spermatozoa, 48 h, 2 days, read-out: EC50 Lethal Toxicity SMIDR 2 days
# Protocol: (§1) The long-term effects of exposure to chaetoglobosin A and to the chaetoglobosin-containing extracts of the Ch. globosum MTAV35 and MTAV37 strains were measured in resting sperm cells exposed at 24 °C for two days. Three criteria were assessed: (1) the motility inhibition of resting boar spermatozoa (BSMIR); (2) the change in mitochondrial membrane potential (ΔΨ) observed using the potentiometric dye JC-1; and (3) the plasma membrane integrity (SMIDR) observed using the viability stain calcein-AM + propidium iodide (PI). […] By contrast, the EC50 concentrations in the SMIDR assays, which measured the lethal damages in plasma membrane after incubation for two days, were >50 times higher (Figure 5 and Table 3).
# (§2) The boar sperm cells exposed for 2 days to commercial chaetoglobosin A and the crude extract of MTAV35 and MTAV37 were double-stained with the viability stains PI + calcein–AM, the SMIDR assay, as described earlier. The staining protocol was as follows: 200 μL of extended boar semen containing 27 × 10^6 sperm cells mL^−1 was mixed with 200 μL PBS containing 3 μg mL^−1 calcein-AM and 10 μg mL^−1 PI. The ΔΨm assay monitored the mitochondrial membrane potential changes (ΔΨm) by staining with the lipophilic potentiometric dye JC-1 as described by Mikkola et al. (2015). For the staining with JC-1 (35 µg mL^−1), 200 µL of the sperm cells were shaken and incubated at 37 °C for 5 min. After staining, the cells exposed in the SMIDR and the ΔΨm assays were inspected with fluorescence microscope using 400× magnification (Nikon Eclipse E600, Nikon Corporation, Tokyo Japan) with filters BP 450–490 nm/LP 520. The calcein–AM-stained cells with intact plasma membranes produced green fluorescence, whereas the PI-dyed cells with damaged plasma membranes produced red fluorescence. In JC-1 stained sperm cells, mitochondria with high membrane potential emitted yellow fluorescence, whereas depolarized mitochondria fluoresced green.
# (§3) The EC50 concentration in these microscopic assays was defined as the lowest concentration where the ratio of cells similar to those in the solvent control was less than 50%. This EC50 fitted between EC90 and EC10 observed in the microscope calculating ca. 100–120 sperm cells from three microscopic fields. The maximal difference between four parallel tests in each of the two methods was one dilution step. The assays were calibrated with triclosan.
# resting boar spermatozoa [6] = test: Motility inhibition of resting boar spermatozoa (BSMIR); type: cell-based; conditions: resting boar sperm; for EC50: Spermatozoa
# Protocol: as §1, with “Three” for “The long-term effects of exposure to chaetoglobosin A and to the chaetoglobosin-containing extracts of the Ch. globosum MTAV35 and MTAV37 strains were measured in resting sperm cells exposed at 24 °C for two days. Three”
# The procedure for the BSMIR assay measuring sublethal toxicity as motility inhibition, i.e., inability to respond to induction of motility in resting sperm cells is described below: The ethanol solutions (0.5–10 μL) were dispensed in 2000 μL of extended boar semen (Figen Ltd., Tuomikylä, Finland, density of 27 × 10^6 sperms mL^−1) incubated at 24 °C, and motility of the sperms was inspected in the phase-contrast microscope (400× magnification) with a heated stage, (Olympus CKX41, Tokyo, Japan; magnification 400×) and an image recording software (Cellsense® standard version 11.0.06, Olympus Soft Imaging Solutions GmbH, Münster, Germany, 2012) as described previously. […] The EC50 was calculated from the equation of the straight line between EC50-40 and EC80-90: Y = −ΔY/ΔX × X + C where Y is the motility closest to 50% of the motility of the solvent control, X is the EC50 concentration and C is a constant between 100% and 60%. All tests were run in triplicates and differences between replicate tests were within one dilution step (2-fold). The sperm assays were calibrated with triclosan and valinomycin.
# resting boar spermatozoa [7] = test: Mitochondrial membrane potential (ΔΨm) assay with JC-1 in resting spermatozoa; type: cell-based; conditions: resting boar sperm; for EC50: Spermatozoa
# Protocol: as §1, with “Three” for “The long-term effects of exposure to chaetoglobosin A and to the chaetoglobosin-containing extracts of the Ch. globosum MTAV35 and MTAV37 strains were measured in resting sperm cells exposed at 24 °C for two days. Three”
# as §2, §3
# [8] = 20 min, motile boar sperm, 20 min, 37 °C
# [9] = 24 h, PK-15, 1 day, read-out: EC50 Sublethal Toxicity Acceleration of glycolysis 1 day
# [10] = 48 h, PK-15, 2 days, read-out: EC50 Sublethal Toxicity Acidosis 2 days
# [11] = 48 h, 24 °C, 2 days, read-out: EC50 Sublethal Toxicity BSMIR 2 days
# [12] = 48 h, JC-1, 2 days, read-out: EC50 Sublethal Toxicity Depletion of ΔΨm 2 days
Molecule,"EC50 ([1]; PK-15, 2 days, 37 °C) [µg/mL]",EC50 (boar spermatozoa [2]; [8]) [µg/mL],"EC50 (boar spermatozoa [4]; motile boar sperm, 2 h, 37 °C) [µg/mL]",EC50 (resting PK-15 cells; [9]) [µg/mL],EC50 (resting PK-15 cells; [10]) [µg/mL],lethal concentration in resting PK-15 cells (number in parenthesis) (resting PK-15 cells) [µg/mL],CC50 (resting boar spermatozoa [5]) [µg/mL],EC50 (resting boar spermatozoa [6]; [11]) [ng/mL],EC50 (resting boar spermatozoa [7]; [12]) [ng/mL],"EC50 Sublethal Toxicity Acceleration of glycolysis 1 day (resting PK-15 cells; PK-15, 1 day)","EC50 Sublethal Toxicity Acidosis 2 days (resting PK-15 cells; PK-15, 2 days)",sublethal concentration that promoted the acceleration of glycolysis (resting PK-15 cells) [ng/mL],"EC50 Sublethal Toxicity BSMIR 2 days (resting boar spermatozoa [6]; 24 °C, 2 days) [µg/mL]","EC50 Sublethal Toxicity Depletion of ΔΨm 2 days (resting boar spermatozoa [7]; JC-1, 2 days)",also measured
"CC1=C2C(=CO[C@H](C)[C@H]2C)C(O)=C(C(=O)O)C1=O [Citrinin, reference compound]",10,> 100,50,–,–,–,–,–,–,–,–,–,–,–,"EC50 ([3]; Mus musculus, Neuroblastoma cell, 48 h, read-out: EC50 ICP MNA 2 days): 10 µg/mL"
CC(C)[C@H]1C(=O)O[C@H](C(C)C)C(=O)N(C)[C@@H](C(C)C)C(=O)O[C@H](C(C)C)C(=O)N(C)[C@@H](C(C)C)C(=O)O[C@H](C(C)C)C(=O)N1C [Enniatin B],–,–,–,5,5,50,> 50,5000,5000,–,–,–,–,–,–
O=c1cc(O)c1=O [Moniliformin],–,–,–,–,–,40,–,–,–,4 µg/mL,4 µg/mL,4,2,None,–
"COc1cc2c(c3oc4cccc(O)c4c(=O)c13)[C@@H]1C=CO[C@@H]1O2 [Sterigmatocystin, sterigmatocystin]",–,–,–,–,–,–,–,–,–,–,–,–,–,–,EC50 ICP PK-15 2 days [1]: 0.5 µg dry wt mL^−1; EC50 BSMIM Boar Sperm 20 min (boar spermatozoa [2]): >20 µg dry wt mL^−1; EC50 SMIDM Boar Sperm 2 h (boar spermatozoa [4]): >20 µg dry wt mL^−1
CC(C)[C@@H]1NC(=O)[C@H](C)OC(=O)[C@@H](C(C)C)NC(=O)[C@@H](C(C)C)OC(=O)[C@H](C(C)C)NC(=O)[C@H](C)OC(=O)[C@@H](C(C)C)NC(=O)[C@@H](C(C)C)OC(=O)[C@H](C(C)C)NC(=O)[C@H](C)OC(=O)[C@@H](C(C)C)NC(=O)[C@@H](C(C)C)OC1=O [Valinomycin],14,0.0001,70,0.005,0.005,5,5,0.05,0.05,–,–,5,–,–,"EC50 (resting boar spermatozoa [6]; 96 h, 4 days, read-out: EC50 Sublethal Toxicity BSMIR 4 days): 0.05 ng/mL; EC50 (resting boar spermatozoa [7]; 96 h, JC-1, 4 days, read-out: EC50 Sublethal Toxicity Depletion of ΔΨm 4 days): 0.05 ng/mL"
Alamethicin,–,–,–,–,–,–,–,–,–,None,None,–,0.2,0.2 µg/mL,"EC50 Lethal Toxicity SMIDR 2 days (resting boar spermatozoa [5]): 0.2 µg/mL; EC50 ICP PK-15 2 days ([1]; PK-15, 2 days, 37 °C): 8 µg dry wt mL^−1; EC50 BSMIM Boar Sperm 20 min (boar spermatozoa [2]; motile boar sperm, 20 min, 37 °C): 5 µg dry wt mL^−1; EC50 ICP MNA 2 days [3]: 8 µg dry wt mL^−1; EC50 SMIDM Boar Sperm 2 h (boar spermatozoa [4]; motile boar sperm, 2 h, 37 °C): 1 µg dry wt mL^−1"
